The values that follow come from PubChem BioAssay AID434951 (Broad Institute, 2010).

pEC50: −log10 of the molar value. Active and inactive are the calls of the source.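 The calls were made as follows: active = a fitted half-maximal concentration EC50 for the rise in nuclear signal no higher than ten times the top dose tested; inconclusive = flat fit with activity between 30% and 70%, or unusable fit; inactive = EC50 beyond ten times the top dose.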

Sequence of Hypoxia-inducible factor 1-alpha (Homo sapiens) (Q16665 whole entry, looked up): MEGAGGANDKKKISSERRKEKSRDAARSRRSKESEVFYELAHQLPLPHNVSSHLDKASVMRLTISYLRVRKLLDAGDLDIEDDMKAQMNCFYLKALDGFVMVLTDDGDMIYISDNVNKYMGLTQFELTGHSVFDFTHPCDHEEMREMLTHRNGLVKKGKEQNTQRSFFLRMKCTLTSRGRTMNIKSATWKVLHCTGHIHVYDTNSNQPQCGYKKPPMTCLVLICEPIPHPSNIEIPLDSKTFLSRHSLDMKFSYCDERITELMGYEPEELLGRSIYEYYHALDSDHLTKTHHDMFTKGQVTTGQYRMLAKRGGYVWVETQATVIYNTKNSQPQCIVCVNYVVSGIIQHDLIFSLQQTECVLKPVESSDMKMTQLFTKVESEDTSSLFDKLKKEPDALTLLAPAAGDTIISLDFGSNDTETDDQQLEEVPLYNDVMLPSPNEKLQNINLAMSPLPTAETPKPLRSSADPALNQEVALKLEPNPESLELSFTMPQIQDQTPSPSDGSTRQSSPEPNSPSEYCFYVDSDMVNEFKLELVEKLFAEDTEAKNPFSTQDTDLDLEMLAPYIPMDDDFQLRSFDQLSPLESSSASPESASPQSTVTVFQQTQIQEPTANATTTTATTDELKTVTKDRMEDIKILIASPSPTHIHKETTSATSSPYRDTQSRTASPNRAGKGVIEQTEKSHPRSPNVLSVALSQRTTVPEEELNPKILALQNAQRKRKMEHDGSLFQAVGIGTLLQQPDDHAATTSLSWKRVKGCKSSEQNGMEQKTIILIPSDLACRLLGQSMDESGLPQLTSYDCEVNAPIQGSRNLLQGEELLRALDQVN

This assay addresses Hypoxia-inducible factor 1-alpha (Homo sapiens) (UniProt Q16665). The assay can be described thus: HIF pathway activation, GFP-HIF1alpha translocation – imaging, fluorescence, U2OS GFP-HIF1alpha, confirmation (AID 434951). The conditions noted are these: U2OS GFP-HIF1alpha nuclear intensity, high-content imaging.
For the compound `COc1cccc(/C=N/NC(=O)c2ccc(-c3ccccc3)cc2)c1O`, the pEC50 is 4.52. For the compound `Cc1cc(SCC(=O)N/N=C/c2ccc(O)c(O)c2O)c(C)cc1Br`, the EC50 is > 35 µM (inactive). Consider `CCN(CC)CCNC1=CC(=O)OC12CCCCC2`, for which the EC50 was > 35 µM (inactive).

With `O=C(CCc1ccccc1)Nc1ccnn1C1CCN(C/C=C/c2ccccc2)CC1`, the EC50 was > 35 µM (inactive). For the compound `COc1ccc(NC(=O)C2CCN(S(=O)(=O)c3ccc4c(c3)CC(C)N4C(C)=O)CC2)cc1OC` (stereo not given), the EC50 is > 35 µM (inactive).

Regarding `CCOC(=O)c1sc(=S)n(-c2ccccc2)c1C`, the EC50 was > 35 µM (inactive). For the compound `CN(C)/N=C/C=C1\CCC/C(=C/c2cccs2)C1=O`, the EC50 is > 35 µM (inactive). With `Cc1cccc(OCC(=O)NCC(=O)N/N=C/c2cccnc2)c1`, the EC50 was > 35 µM (inactive). As for `COc1ccc(C(NC(=O)c2cccnc2)c2cc(Cl)c3cccnc3c2O)cc1OC` (stereo not given), the pEC50 is 5.15. Consider `COc1ccc(CC(=O)NNC(=S)NCC2CC2)cc1OC`, for which the EC50 is > 35 µM (inactive). Still for that read-out and setting: to `O=C(Cn1c(Cc2ccccc2)nc2ccccc21)NCc1ccc2c(c1)OCO2` belongs > 35 µM (inactive); to `CC1CN(S(=O)(=O)c2cccc(C(=O)N(CCc3ccccc3)Cc3ccccc3)c2)CC(C)O1` (stereo not given), > 35 µM (inactive).

Take `FC(F)Oc1ccc(NC(=S)Nc2ccc3cn[nH]c3c2)cc1`: the EC50 is > 35 µM (inactive).

As for `O=C(NCCCN1CCOCC1)c1cc(-c2ccccc2)on1`, the pEC50 is 5.03.

With `O=C(NCC1CCCO1)c1cc(-c2ccc(F)cc2)no1` (stereo not given), the pEC50 was 4.49. Consider `COc1ccc(NC(=O)c2cccs2)cn1`, for which the EC50 is > 35 µM (inactive).

Regarding `COc1ccc(C(=O)C2CCCN(C(=O)C3CCOCC3)C2)cc1OC` (stereo not given), the EC50 is > 35 µM (inactive). As for `Cc1onc(-c2c(Cl)cccc2Cl)c1C(=O)N=C(N)N1CCCC1`, the EC50 is > 35 µM (inactive). For the compound `COC(=O)[C@H](CCSC)NC(=O)c1cccnc1SC`, the EC50 was > 35 µM (inactive). Regarding `C=CCNC(=O)/C(=C/c1cn(-c2ccccc2)nc1-c1cccc([N+](=O)[O-])c1)NC(=O)c1ccccc1`, the EC50 is > 35 µM (inactive).

With `O=C(COC(=O)c1cccc(S(=O)(=O)N2CCOCC2)c1)Nc1ncc(C(F)(F)F)cc1Cl`, the EC50 was > 35 µM (inactive). Regarding `CN(CC1CCCO1)S(=O)(=O)c1ccc(C(=O)Nc2nccs2)cc1` (stereo not given), the EC50 is > 35 µM (inactive). For the compound `O=C(Cn1c(SCC(=O)N2CCCc3ccccc32)nc2ccccc21)N1CCCC1`, the EC50 is > 35 µM (inactive).

With `COc1cc(OC)c2nc(C)c3c(c2c1)N(c1ccc(O)cc1)CC3`, the EC50 was > 35 µM (inactive). On to `COc1ccc(C2NN=C(c3ccc(C)cc3)S2)cc1` (stereo not given), for which the EC50 was > 35 µM (inactive).

For the compound `Cc1cc(/C=N/n2c(COc3ccccc3)nc3ccccc3c2=O)c(O)c([N+](=O)[O-])c1`, the pEC50 is 4.61. As to `C(=N\Nc1nc2ccccc2[nH]1)/c1cccc2cccnc12`, the pEC50 is 4.92. Still for that read-out and setting: for `CCN(CC)S(=O)(=O)c1ccc(N/N=C(\C)c2ccc(OC)cc2O)nc1` the value was 5.10. As for `CC(=O)c1cccc(NS(=O)(=O)c2ccc(-c3cc(C)no3)s2)c1`, the EC50 was > 35 µM (inactive). Regarding `c1ccc(-c2nnc(-c3ccccn3)nc2NC2CCCCC2)cc1`, the pEC50 was 5.17. In the case of `COc1ccc(NC(=O)c2cccc(NC(=O)c3ccco3)c2)c(OC)c1`, the EC50 was > 35 µM (inactive).

On to `CCOc1ccc(/C=N/NC(=O)c2[nH]ncc2Br)c(O)c1`, for which the pEC50 is 4.99. In the case of `O=C(N/N=C/c1cc(Br)cc(Cl)c1O)c1ccc2c(c1)OCO2`, the EC50 was > 35 µM (inactive). As for `Nc1nc(SCC(=O)N2CCCC2)[nH]c(=O)c1-c1ccccc1`, the EC50 is > 35 µM (inactive).

Consider `CCCCCCN1C=CC=C/C1=C/C=C(C#N)C#N`, for which the EC50 was > 35 µM (inactive). Still for that read-out and setting: to `CN(C)c1ccc(CNC(=O)CCS(=O)(=O)c2ccc3c(c2)oc(=O)n3C)cc1` belongs > 35 µM (inactive).

Take `O=C1CCCN2N=C(SCC(=O)Nc3ccc(Br)cc3)SC2=N1`: the pEC50 is 4.57.

Consider `CCOC(=O)Cc1nn(CC)c(=O)c2ccccc12`, for which the EC50 is > 35 µM (inactive).

As to `FC(F)(F)c1ccc(-c2nc(=S)[nH][nH]2)cc1`, the EC50 is > 35 µM (inactive). Turning to `Cc1cc(OCC(=O)Nc2ccc3c(c2)OCCO3)cc(C)c1Cl`, the EC50 is > 35 µM (inactive). Take `O=C(N/N=C/c1cc(Cl)cc(Cl)c1O)c1ccncc1`: the EC50 is > 35 µM (inactive).

Consider `Cc1c(/C=N/NC(N)=O)c2ccccn2c1C(=O)c1ccncc1`, for which the EC50 was > 35 µM (inactive). For the compound `CCc1nc(N2CCN(C(=O)c3ccco3)CC2)c2c3c(sc2n1)CCCC3`, the EC50 was > 35 µM (inactive).

For the compound `CCOC(=O)c1c(C)nc2cc(C)ccn12`, the EC50 is > 35 µM (inactive). Take `CC(NC(=O)C12CC3CC(CC(O)(C3)C1)C2)c1ccc(Cl)cc1Cl` (stereo not given): the EC50 was > 35 µM (inactive). For the compound `Cc1nn(C(=O)c2cccnc2)c(C)c1Sc1ccccc1`, the EC50 was > 35 µM (inactive).

As to `COc1ccc(CCNC(=O)c2nnn(CC(=O)Nc3c(C)cc(C)cc3C)c2N)cc1OC`, the EC50 was > 35 µM (inactive). Regarding `COc1ccc(/C=N/NC(=S)Nc2cc(S(=O)(=O)N3CCOCC3)ccc2N2CCOCC2)cc1O`, the EC50 is > 35 µM (inactive). As to `O=C(COc1ccc(Cl)cc1Cl)N/N=C/CCc1ccccc1`, the EC50 was > 35 µM (inactive). `COc1ccc(NC(=O)CSc2nc3c(c(=O)[nH]2)CCC3)cc1OC`: the EC50 was > 35 µM (inactive). On the same count and under the same terms, for `CCC1CCCCN1CCCNC(=O)C1CCN(c2nnc(-n3cccc3)s2)CC1` (stereo not given) the value was > 35 µM (inactive). As to `COc1ccccc1-c1cc(C(F)(F)F)nc(S(=O)(=O)CCCC(=O)N2CCOCC2)n1`, the EC50 was > 35 µM (inactive).

As to `CCOC(=O)c1c(NC(=O)CCC(=O)O)sc2c1CCCCC2`, the EC50 is > 35 µM (inactive). Take `c1ccc2c(NCCc3c[nH]c4ccccc34)c3ccccc3nc2c1`: the EC50 is > 35 µM (inactive). In the case of `Cc1cc(-c2nnnn2-c2cc(Cl)cc(Cl)c2)no1`, the EC50 was > 35 µM (inactive). On to `COc1ccc2oc(C(=O)OCC(=O)Nc3ccccc3OC)c(C)c2c1`, for which the EC50 was > 35 µM (inactive).

`Cc1nc(NCCc2ccccc2)c(C#N)c(C)c1[N+](=O)[O-]`: the EC50 was > 35 µM (inactive). `CCn1c(C)nc2cc(C(=O)N/N=C/c3cccc(O)c3O)ccc21`: the pEC50 is 4.61. For the compound `O=C(Nc1ccccc1)N(C1=NCCCCS1)c1cccc2ccccc12`, the EC50 was > 35 µM (inactive). Turning to `CCCCN(C(=O)c1c(C)[nH]c(C(=O)OCC)c1C)c1ccccc1`, the EC50 was > 35 µM (inactive). As to `CC1=NN2C(=N)/C(=C\c3cc(C)n(Cc4ccccc4)c3C)C(=O)N=C2S1`, the EC50 was > 35 µM (inactive). Consider `Cc1ccc2nc(SCC(=O)Nc3ccc(Br)cc3)nc(=O)n2c1`, for which the EC50 was > 35 µM (inactive). The same measure, in the same setting: to `COC(=O)Nc1ccc(=O)n(Cc2c(Cl)cccc2Cl)c1` belongs > 35 µM (inactive). Regarding `CCc1cc2c(=O)[nH]c(-c3ccccn3)nc2s1`, the pEC50 is 5.32. Turning to `CCCCNC(=O)CN1C(=O)COc2ccc(S(=O)(=O)N3CCCCCC3)cc21`, the EC50 was > 35 µM (inactive). In the case of `Cc1ncc(CO)c(/C=N/Nc2ccc(C(F)(F)F)cn2)c1O`, the pEC50 is 4.75.

As for `CCCCC(=O)NC(c1cccs1)c1cc(Cl)c2cccnc2c1O` (stereo not given), the EC50 was > 35 µM (inactive). Take `Cc1ccc(C)c(-c2cc(C(=O)Nc3cccc(C(=O)O)c3)c3ccccc3n2)c1`: the EC50 was > 35 µM (inactive). The same measure, in the same setting: for `O=C1CSCN1c1ccc(Cl)cc1` the value was > 35 µM (inactive); for `O=C(N/N=C/c1cccnc1)c1ccc(NC(=O)c2ccc(Cl)cc2)cc1`, > 35 µM (inactive); for `O=C(CN(Cc1ccc(F)cc1)C(=O)CCC(=O)Nc1nccs1)NCC1CCCO1` (stereo not given), > 35 µM (inactive). For the compound `Cc1cc(Cl)n2c(nc3cc(F)c(F)cc32)c1C#N`, the EC50 is > 35 µM (inactive). With `CSc1nc(C)cc(C)c1C#N`, the EC50 was > 35 µM (inactive).

Regarding `O=C(NCC(=O)N(Cc1ccco1)C(C(=O)NC1CCCCC1)c1cccnc1)c1cccs1` (stereo not given), the EC50 was > 35 µM (inactive). The same measure, in the same setting: to `COC(=O)C1C(=O)N2CCCSC2=C(C#N)C1c1cccs1` (stereo not given) belongs > 35 µM (inactive); to `Cc1ccc(NC(=O)Cn2cnc3c(=O)n(C)c(=O)n(C)c32)c(C)c1`, > 35 µM (inactive). Consider `COc1cc2ccccc2cc1C(=O)NNC(=O)c1ccccc1O`, for which the EC50 is > 35 µM (inactive). Consider `CCOc1ccccc1N1CCN(C(=S)NC(=O)C23CC4CC(CC(C4)C2)C3)CC1`, for which the EC50 was > 35 µM (inactive). Take `CCOC(=O)c1c(NC(=O)CN2C(=O)NC3(CCC(C)CC3)C2=O)sc(C)c1-c1ccc(C)cc1` (stereo not given): the pEC50 was 5.12. Consider `CC(C)C(=O)NC(c1ccco1)c1ccc2cccnc2c1O` (stereo not given), for which the pEC50 was 5.35. For the compound `O=C(NNC(=O)c1ccccc1Br)c1ccc(Cl)cc1`, the EC50 was > 35 µM (inactive). Same read-out and setting: for `CCCn1c(SCC(=O)N2CCc3ccccc3C2)nc2c1c(=O)n(C)c(=O)n2C` the value was > 35 µM (inactive). Regarding `O=C(N/N=C/c1c(O)ccc2ccccc12)c1ccc(CO)nc1`, the pEC50 is 5.18. On to `Cc1ccc(N(C)S(=O)(=O)c2ccc(-c3cc(C)no3)s2)cc1`, for which the EC50 was > 35 µM (inactive). Regarding `Cc1nc2nc(-c3ccco3)nn2c(C)c1Cl`, the EC50 was > 35 µM (inactive). On to `Cc1ccc(Nc2c(-c3ccccn3)nc3ccc(C)cn23)cc1`, for which the pEC50 was 5.21. As for `O=C(CC1SC(N2CCCC2)=NC1=O)Nc1ccc(C(=O)Nc2ncccc2O)cc1` (stereo not given), the pEC50 was 4.53.

`O=C(N/N=C/c1ccc(O)c(O)c1O)/C(=C/c1ccc([N+](=O)[O-])cc1)NC(=O)c1ccccc1`: the EC50 was > 35 µM (inactive). Regarding `CN(C)c1nc(-c2ccccn2)nnc1-c1ccccc1`, the pEC50 is 5.17. Turning to `COc1cc(C(=O)Oc2ccccc2/C=N/NC(=O)c2ccc(C)cc2)cc(OC)c1OC`, the pEC50 is 4.86.

For orientation: pEC50 means the EC50 on a negative log10 scale, so that one unit is a factor of ten. What is called EC50 is the concentration giving half of the maximal effect.
